Test systems include MDA-N; XF 498 CNS; HOP-18 NSCLC; SNB-78 CNS; DMS 114 small cell lung; DLD-1 colon; M19-MEL melanoma; KM20L2 colon; RXF-631 renal; SN12K1 renal.
Holding throughout (experiment): NCI-60 cell line screen, 48 h

Where “and” joins values, the source holds several entries; their conditions need not be identical. Equal values may be shown once.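 1) Cells in 96-well plates. 2) Compound, 48 h, 5 concentrations. 3) Linear interpolation between surrounding doses. 4) Unreached endpoint = highest concentration. GI50 marks 50% less growth. At the TGI there is no net growth.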 Bounds are passed on as bounds.

Our source for the TGI and GI50 values is PubChem BioAssay (NCI).

For the compound `Clc1ccccc1-c1nc(-c2ccncc2)no1`, the TGI with MDA-N was greater than 100 µM.
Take `Nc1c(S(=O)(=O)O)cc(Nc2cccc(S(N)(=O)=O)c2)c2c1C(=O)c1ccccc1C2=O`: the TGI with MDA-N came out at 42.8 µM.
As to `O=C1NC2(CCCC2)/C(=N\O)C12CCCC2`, the TGI with XF 498 CNS, in the assay on HOP-18 NSCLC, with SNB-78 CNS, with DMS 114 small cell lung, with DLD-1 colon and in the assay with M19-MEL melanoma was greater than 100 µM in each case.
In the case of `CC1(C(=O)NCCN(CCNC(=O)C2(C)CC3(C)CC(C)(C2)C(=O)NC3=O)CCNC(=O)C2(C)CC3(C)CC(C)(C2)C(=O)NC3=O)CC2(C)CC(C)(C1)C(=O)NC2=O` (stereo not given), the TGI in the assay with XF 498 CNS, in the assay on HOP-18 NSCLC, in the assay with SNB-78 CNS, with DMS 114 small cell lung, with M19-MEL melanoma and with KM20L2 colon was greater than 100 µM throughout.
As to `Cc1cc2c(=O)cc(-c3ccc(C(F)(F)F)cc3)oc2c(C(=O)O)c1C`, the TGI in the assay with XF 498 CNS, with HOP-18 NSCLC, with SNB-78 CNS, with DMS 114 small cell lung, in the assay with DLD-1 colon and with M19-MEL melanoma was greater than 100 µM in each case. The TGI in the assay with RXF-631 renal and with KM20L2 colon was greater than 100 µM throughout.
Compound `CNS(=O)(=O)c1ccccc1C(=N)c1ccccc1` yielded a TGI in the assay on MDA-N greater than 100 µM.
Compound `O=C1c2ccccc2C(=O)c2c(NC(=O)C(Cl)CCl)cccc21` (stereo not given) displayed a TGI in the assay with MDA-N of 24.6 µM.
As to `CC(C)[C@](O)(C(=O)OCC1=CC[N+]2([O-])CC[C@@H](O)[C@@H]12)[C@H](C)O` (stereo not given in full), the TGI in the assay with HOP-18 NSCLC, in the assay on SNB-78 CNS, in the assay on MDA-N, in the assay on SN12K1 renal, in the assay on DLD-1 colon and in the assay with M19-MEL melanoma was greater than 10000 µM throughout. Further, the TGI with KM20L2 colon is greater than 10000 µM.
For `[C-]#[O+].[C-]#[O+].[Ir].[O-]c1ccc2ccccc2c1N=Nc1ccccc1`, the GI50 in the assay with XF 498 CNS is 2.14 µM; in the assay with HOP-18 NSCLC, 0.313 µM; with SNB-78 CNS it was 24.3 µM; with DMS 114 small cell lung, 2.68 µM; in the assay on DLD-1 colon, 3.3 µM; with M19-MEL melanoma, 3.24 µM. For the same compound, the TGI in the assay on XF 498 CNS came to 5.18 µM; in the assay with HOP-18 NSCLC, 10.3 µM; in the assay on SNB-78 CNS, 53 µM; in the assay with MDA-N, 18.8 µM; in the assay on DMS 114 small cell lung, 8.68 µM; in the assay on DLD-1 colon, 12.4 µM. This compound also came in with a TGI in the assay with M19-MEL melanoma of 21.2 µM.
In the assay on MDA-N, `CC(N)(Cc1c[nH]c2ccccc12)C(=O)O` (stereo not given) gave a TGI greater than 100 µM.
Take `C[n+]1c2cc(N)ccc2cc2ccc(N)cc21` (tested in a mixture with another compound): in the assay with MDA-N, the GI50 was 0.64 µM and the TGI was found to be 2.06 µM.
On to `O=C(c1ccccn1)c1nc(-c2ccc(Cl)c(Cl)c2)nc2ccc(Cl)cc12`, for which the TGI in the assay on XF 498 CNS is 55.3 µM; in the assay with SNB-78 CNS, greater than 100 µM; in the assay on DMS 114 small cell lung, greater than 100 µM; with DLD-1 colon, greater than 100 µM; with M19-MEL melanoma it was greater than 100 µM; with KM20L2 colon it was greater than 100 µM.
`Clc1ccccc1C1N2CCCCC2[C@@H]2c3[nH]c4ccccc4c3CCN12` (stereo not given in full): the TGI is 35.4 µM in the assay with XF 498 CNS; greater than 100 µM with HOP-18 NSCLC; 61.1 µM in the assay on SNB-78 CNS; 41.6 µM in the assay with DMS 114 small cell lung; 37.5 µM in the assay on DLD-1 colon; 29.2 µM in the assay on M19-MEL melanoma. Also, the TGI in the assay on KM20L2 colon is 34.1 µM.
As for `COc1cc([N+](=O)[O-])c(S(=O)(=O)O)cc1N`, the TGI in the assay on MDA-N is greater than 100 µM.
For `NCCn1ccc(NC(c2ccccc2)(c2ccccc2)c2ccccc2)nc1=O`, the TGI in the assay on XF 498 CNS was 26.1 µM; in the assay on HOP-18 NSCLC, greater than 100 µM; in the assay with SNB-78 CNS, 42.5 µM; in the assay on DMS 114 small cell lung it was 38.6 µM; with DLD-1 colon, greater than 100 µM; in the assay on M19-MEL melanoma it was 42.2 µM. In the assay on KM20L2 colon, this compound showed a TGI of 32.2 µM.
In the case of `Nc1ccc(-c2ccc(Nc3cc(S(=O)(=O)O)c(N)c4c3C(=O)c3ccccc3C4=O)cc2)c(S(=O)(=O)O)c1`, the TGI with MDA-N was greater than 100 µM.
On to `COc1cc[c]([Sb]([Br])([CH]=C(C)C)([CH]=C(C)C)[CH]=C(C)C)cc1`, for which the GI50 with DMS 114 small cell lung was 3.02 µM; with DLD-1 colon, 24.1 µM; in the assay with M19-MEL melanoma, 3.1 µM; with KM20L2 colon, 5.06 µM. Further, the TGI with DMS 114 small cell lung was 20.8 µM; in the assay with DLD-1 colon it was greater than 100 µM; with M19-MEL melanoma it was greater than 100 µM; in the assay with KM20L2 colon it was greater than 100 µM.
`C/C(=C1/N=C(c2ccccc2)OC1=O)c1ccc(C)cc1` gave a TGI in the assay with MDA-N greater than 100 µM.
Turning to `S=c1nc[nH]c2nc[nH]c12`, the TGI in the assay on XF 498 CNS was 163 µM; with HOP-18 NSCLC it was 644 µM; with SNB-78 CNS, 670 µM; in the assay on MDA-N it was 636 µM and > 750 µM; with DMS 114 small cell lung, 385 µM; in the assay with SN12K1 renal it was 527 µM. Also, the TGI in the assay on DLD-1 colon was greater than 750 µM; in the assay with M19-MEL melanoma, greater than 734 µM; in the assay on KM20L2 colon it was 691 µM. Besides, the GI50 in the assay with MDA-N was 7.85 µM.
`C/C=C/C(=O)[C@@H](O)C(C)C`: the TGI in the assay on SNB-78 CNS, in the assay on M19-MEL melanoma and with KM20L2 colon was greater than 100 µM in each case.
As to `CN(C)CCNC(=O)c1cccc2ccc(-c3cccnc3)nc12`, the TGI came to 62.9 µM with HOP-18 NSCLC; 72.4 µM in the assay with SNB-78 CNS; 18.6 µM with DMS 114 small cell lung; 60.4 µM in the assay on DLD-1 colon; 16.9 µM in the assay with M19-MEL melanoma; 23.1 µM in the assay on RXF-631 renal.
`CCCCNC(=O)OCC(COc1ccccc1OC)OC(=O)NCCCC` (stereo not given): the TGI in the assay with XF 498 CNS, in the assay on HOP-18 NSCLC, with SNB-78 CNS, in the assay with DMS 114 small cell lung, in the assay with DLD-1 colon and with M19-MEL melanoma was greater than 100 µM throughout. Besides, the TGI in the assay on RXF-631 renal and in the assay with KM20L2 colon was greater than 100 µM in each case.
